Test results from ChEMBL document CHEMBL5728478, “Factor XIIa inhibitors” (2021).

Target: T1, Coagulation factor XII (Homo sapiens, UniProt P00748)
T1 sequence (P00748 whole entry): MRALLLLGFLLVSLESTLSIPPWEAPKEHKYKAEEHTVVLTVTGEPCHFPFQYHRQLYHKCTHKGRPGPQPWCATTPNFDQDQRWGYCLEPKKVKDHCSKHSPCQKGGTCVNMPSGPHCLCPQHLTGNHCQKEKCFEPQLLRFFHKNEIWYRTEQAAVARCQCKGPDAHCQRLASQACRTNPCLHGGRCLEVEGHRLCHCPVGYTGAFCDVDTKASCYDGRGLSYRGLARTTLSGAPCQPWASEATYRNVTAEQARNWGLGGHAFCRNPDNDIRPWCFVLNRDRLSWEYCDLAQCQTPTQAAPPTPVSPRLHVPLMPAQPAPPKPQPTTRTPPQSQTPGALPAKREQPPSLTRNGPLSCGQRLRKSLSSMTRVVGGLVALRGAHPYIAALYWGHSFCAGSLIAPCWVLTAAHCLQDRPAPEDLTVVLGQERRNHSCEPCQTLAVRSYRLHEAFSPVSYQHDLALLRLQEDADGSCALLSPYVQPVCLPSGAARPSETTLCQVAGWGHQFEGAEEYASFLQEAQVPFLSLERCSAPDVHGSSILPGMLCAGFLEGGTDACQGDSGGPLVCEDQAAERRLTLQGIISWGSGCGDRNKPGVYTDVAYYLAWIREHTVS
Assay: Factor XIIa assay: Factor XIIa activity determinations were made in 50 mM HEPES buffer containing 150 mM NaCl, 5 mM CaCl2, and 0.1% PEG 8000 (polyethylene glycol; JT Baker or Fisher Scientific) at pH 7.4. Determinations were made using purified human Factor XIIa at a final concentration of […] (Sekisui Diagnostics) and the synthetic substrate, n-Acetyl-Lys-Pro-Arg-AFC, TFA salt (Sigma # C6608) at a concentration of 100 μM.

Row | IC50 [nM] | SMILES
1 | 5 | C[N+](C)(C)CCCC[C@@H](NC1CCCCC1)C(=O)N1CC[C@@H](NC(=O)N2CCC3(CC2)CC3)[C@@H](C(=O)NCc2ccccc2)C1
2 | 82.9 | O=C(NCc1cccs1)[C@H]1CN(C(=O)C(CC2CCNCC2)NC2CCCCC2)CC[C@H]1NC(=O)N1CCC2(CC1)CC2 (some centres not stated)
